Consider four molecules from patent US5760027A, “Use of 7-alkylidene cephalosporins to inhibit elastase activity” (Research Corporation Technologies, Inc., priority 1996, dated 1998).

One assay deals with b-lactamase. As to conditions: commercial b-lactamase inhibitors, for comparison; cited from earlier work.
The target of assay [1] is porcine pancreatic elastase (PPE) (Sus scrofa, UniProt P00772). The experiment in a line: IC50 determination, inhibition of porcine pancreatic elastase (PPE). In kind it is biochemical. As to conditions: 5 min incubation with the inhibitor.
In assay [2] the target is T1, human leukocyte elastase (HLE) (Homo sapiens, UniProt P08246).
T1 construct: purchased Elastin Products Company, Inc. (Owensville, Mo.)
T1 sequence (P08246 30-267): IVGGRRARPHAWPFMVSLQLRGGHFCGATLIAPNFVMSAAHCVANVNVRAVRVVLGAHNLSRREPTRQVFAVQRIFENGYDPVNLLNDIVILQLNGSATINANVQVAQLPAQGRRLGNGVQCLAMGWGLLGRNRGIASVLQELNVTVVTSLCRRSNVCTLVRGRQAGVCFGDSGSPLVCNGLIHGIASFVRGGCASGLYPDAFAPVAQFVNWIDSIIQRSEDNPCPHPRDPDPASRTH
Nature of the assay: IC50 determination, inhibition of human leukocyte elastase (HLE), hydrolysis of N-(methoxysuccinyl)-L-alanyl-L-alanyl-L-prolyl-L-valine 4-nitroanilide at 410 nm. As to conditions: 5 min incubation with the inhibitor; pH 7.5 Tris buffer. In kind it is biochemical.

Another assay deals with T2, HLE (Homo sapiens, UniProt P08246).
T2 construct: chromogenic substrate MeOSuc-AAPV-pNA
T2 sequence (P08246 30-267): T1 sequence (P08246 30-267)
Nature of the assay: inhibition of HLE followed as a function of time (FIG. 1). The format is biochemical. As to conditions: 10-fold molar excess of inhibitor, assayed at regular intervals (2 to 5 minutes). As to the method: To further document the rapid, irreversible inhibition of this enzyme at low, nearly stoichiometric ratios of inhibitor to enzyme, for selected compounds, this inhibition was followed as a function of time.
The data in FIG. 1 were generated by incubating the enzyme with a 10-fold molar excess of inhibitor. Assays of residual enzymatic activity of this mixture were assayed at regular intervals (2 to 5 minutes).

Sequence of porcine pancreatic elastase (PPE) (P00772 27-266): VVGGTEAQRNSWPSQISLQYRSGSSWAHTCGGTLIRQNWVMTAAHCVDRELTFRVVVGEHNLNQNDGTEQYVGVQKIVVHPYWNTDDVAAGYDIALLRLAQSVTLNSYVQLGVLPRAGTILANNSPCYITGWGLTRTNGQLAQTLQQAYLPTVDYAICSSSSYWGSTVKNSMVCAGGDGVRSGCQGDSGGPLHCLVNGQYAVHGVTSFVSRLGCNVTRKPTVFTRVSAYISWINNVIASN

In the case of `O=C(O)[C@H]1/C(=C/CO)O[C@@H]2CC(=O)N21` [clavulanic acid], the “ratio at which inhibitor must be used” value in the assay on b-lactamase is reported as 200 to 1.

As a reminder, the IC50 is the concentration that inhibits the measured activity by half. High values mean weaker potency, low ones greater potency. Regarding `CC(=O)OCC1=C(C(=O)OC(c2ccccc2)c2ccccc2)N2C(=O)C(=C(Br)Br)[C@H]2S(=O)(=O)C1` [Compound 14, Benzhydryl 7-[dibromomethylene]cephalosporanate sulfone], the figures for the IC50 in assay [1] and in assay [2] were 4800 nM and 2070 nM, respectively. Also, the “residual HLE activity / inhibition as a function of time” value (“residual HLE activity / inhibition” below) at HLE was “very potent, irreversible inhibitors of HLE”.

For `COC(=O)/C=C1/C(=O)N2C(C(=O)OC(c3ccccc3)c3ccccc3)=C(COC(C)=O)CS[C@H]12` [Compound 24, Benzhydryl 7-[(Z)-methoxycarbonylmethylene]cephalosporanate], the IC50 was over 10000 nM in assay [1] and 2600 nM in assay [2]. At HLE, the “residual HLE activity / inhibition” value is listed as “very potent, irreversible inhibitors of HLE”.

Take `CC(=O)OCC1=C(C(=O)OC(c2ccccc2)c2ccccc2)N2C(=O)/C(=C\Br)[C@H]2S(=O)(=O)C1` [Compound 16, Benzhydryl 7-[(E)-bromomethylene]cephalosporanate sulfone]: the IC50 in assay [1] was 2490 nM; in assay [2], 3360 nM. Moreover, on HLE, the “residual HLE activity / inhibition” value is “leveling off and allowing the enzyme to regain its activity”.
